# Assay results taken from patent US20060235061A1, “Methods of using benzothiophenone derivatives to treat cancer or inflammation” (QLT,Inc., priority 2002, published 2006).
# Target: T1, Caspase-3 (Homo sapiens, UniProt P42574)
# T1 construct: purchased Calbiochem
# T1 sequence (P42574 29-175 limits assumed): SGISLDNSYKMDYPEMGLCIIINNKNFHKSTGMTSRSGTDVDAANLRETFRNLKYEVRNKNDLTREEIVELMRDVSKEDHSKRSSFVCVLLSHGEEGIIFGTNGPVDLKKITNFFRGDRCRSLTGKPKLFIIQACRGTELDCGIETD
# T1 sequence (P42574 176-277 limits assumed): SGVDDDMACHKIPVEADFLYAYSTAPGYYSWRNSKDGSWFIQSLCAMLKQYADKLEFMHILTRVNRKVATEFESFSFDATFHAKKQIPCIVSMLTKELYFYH
# Assay: Caspase-3 selectivity assay (Calbiochem kit, colorimetric)
# Format: biochemical
# Text: This is a selectivity assay providing information about the specificity of the compounds. A cysteine residue located within the active pocket of the catalytic domain that is conserved between the […] like caspase-3 and the protein tyrosine phosphatases like PTPN12 has a thiol group within this cysteine amino acid that may interact with specific R-groups with inhibiting compounds with in vitro enzyme inhibiting activity. Also, caspase inhibition can prevent apoptosis from occurring in some cases via the caspase cascade. As the potential for cross-inhibitory activity and nonselectivity exists, the caspase-3 assay is performed on PTN12 inhibitors.
# The Calbiochem caspase-3 assay kit was utilized according to package insert instructions. The assay is useful for screening for caspase-3 inhibitors measuring the protease activity of caspase-3 and other caspase-3-like activities. Cleavage is monitored colorimetrically by measuring the increase in absorbance at 405 nm. Assays were performed in a 96-well microtiter plate format.
smiles,measurement,setting,value
O=C1C(=CC=CC=C2Sc3ccccc3N2CCCS(=O)(=O)O)Sc2ccccc21 [3-{2-[4-(3-Oxo-3H-benzo[b]thiophen-2-ylidene)-but-2-enylidene]-benzothiazol-3-yl}-propane-1-sulfonic acid],inhibition at 10 µM,@ 10 μM,3%
same,inhibition at 100 µM,@ 100 μM,27%
